Legend:
Assay type in all cases: cell-based
[1] = system: palmitate-oleate induced steatotic HepG2 cells; assay: Triglyceride accumulation in palmitate-oleate induced HepG2 cells; conditions: 50 μM, 24 h
Protocol: (§1) Induction of steatosis was done in accordance with the protocol of Hetherington and coworkers, Cell Physiol Biochem. 39:1648-62 (2016), with slight modification. HepG2 cells were loaded in 24-well cell culture plates at a density of 4×10^4 cells/well and kept overnight. On the next day, the media were replaced with fresh media containing PO-BSA at 1 mM concentration, with or without test materials (12.5-50 μM) dissolved in DMSO. The cells supplemented with media containing only BSA (instead of PO-BSA) and treated with DMSO (FIG. 2A) served as the normal control. The cells supplemented with media containing PO-BSA and treated with DMSO (FIG. 2B) served as negative control. Fenofibrate (12.5-50 μM) (FIG. 2C) was used as the positive control. After 24 h of treatment, the cells were taken for the analyses.
(§2) After treatment, the cells were harvested and lysed using 1×PBS under sonication at 3× for five second intervals at 40V setting over ice. The cell lysates were taken and estimated for TG and protein using commercial spectrophotometric kits. TG levels were normalized to the protein content, and results were expressed as mg TG/g protein. The MDA levels in the cell lysate were estimated using a commercial spectrophotometric kit. The levels of ALT were measured in the spent media, and cell lysate and percent ALT leakage was calculated using the following formula: […]

[2] = system: palmitate-oleate induced steatotic HepG2 cells; assay: Lipoperoxide formation (MDA/TBARS) in palmitate-oleate induced HepG2 cells; conditions: 50 μM, 24 h
Protocol: as §1, §2

HepG2 cells = assay: MTT toxicity assay; conditions: 24 h; for GI50: Homo sapiens, test materials 100-500 μM, linear regression
Protocol: The cytotoxic effect was analyzed by using the MTT assay as described by Mosmann, J. Immunol Methods. 65:55-63 (1983), with minor modification. HepG2 cells were seeded at 5×10^3 cells/well into a 96-well plate and incubated for 24 h. Spent media was then replaced with fresh media containing test materials (100-500 μM) dissolved in DMSO. Vehicle control cells were treated only with DMSO. The plates were incubated in a CO2 incubator for 24 h. The spent media was then replaced with sterile MTT solution (5 mg/mL in PBS at pH—7.4; 100 μL/well) and incubated for another 3 h. The unreacted MTT dye was removed, and the formazan crystals were dissolved with DMSO (200 μL/well) and kept in dark for 30 min. The resulting purple color was quantified by measuring absorbance at 570 nm. The assays were performed thrice and the results were expressed in percentage in comparison to vehicle-treated cells. The following formula was used for calculation.
[formula] GI50 values were calculated using linear regression analysis.

[3] = system: palmitate-oleate induced steatotic HepG2 cells; assay: ALT leakage of palmitate-oleate induced HepG2 cells; conditions: 24 h
Protocol: as §1, §2

[4] = system: palmitate-oleate induced steatotic HepG2 cells; assay: Reduction of Oil Red O stain in palmitate-oleate induced steatotic HepG2 cells; conditions: Homo sapiens, PO-BSA 1 mM, 24 h, test materials 12.5-50 μM
Protocol: as §1
After treatment, the amount of lipids accumulated into the cells was measured using ORO staining. Briefly, 24 h after treatment, the spent media was removed and the cells were fixed by incubating them with 10% formalin in PBS for 1 h at room temperature. Each well was washed with 60% aqueous isopropanol and was allowed to dry. […] Cell morphology was assessed and photographed (400×) using an inverted microscope. The ORO stain was eluted with 100% isopropanol and measured at 500 nm. […] The results were expressed as the percentage of absorbance of the sample to the absorbance of the control blank.

Row | Structure (SMILES) | triglyceride level [1] | lipoperoxide formation [2] | toxicity compared with AN (MTT assay) (HepG2 cells) | GI50 (HepG2 cells) | ALT leakage [3] | EC50 [4]
1 | CCC(=O)OCC1(C)[C@H](O)CC[C@@]2(C)C3C[C@@H](C4=CCOC4=O)O[C@]3(C)CC[C@H]12 (some centres unmarked) [IAN-19P, isoandrographolide-19-propionate] | come to normal | significantly lowered | comparatively lower toxicity than AN | 27000 µM | lowered ALT leakage | 8.92 µM
2 | C=C1CC[C@@H]2[C@](C)(CO)[C@H](O)CC[C@@]2(C)[C@@H]1C/C=C1/C(=O)OC[C@H]1O [AN, Andrographolide] | – | – | – | 254 µM | – | 43.3 µM

From patent publication US10064841B1, “Isoandrographolide-19-propionate for treatment of non-alcoholic fatty liver disease (NAFLD)” (KING SAUD UNIVERSITY, priority 2018, dated 2018)
